Test system: RUNX2, OCN and OPN
Test: Osteogenic gene expression (RUNX2, OCN, OPN) in differentiating MSC
Type: cell-based, human
Method: Subsequently, the effect of chemical inhibition/stimulation of the intermediate and end products of kynurenine activation on osteogenic differentiating MSC was then characterised.
These compounds were added to the MSC media on day one of differentiation. […] Media was changed every three days. […]

[1] = highest dose (100 μM), 14 days post-induction

O=C(O)c1ccccn1 [PA, pyridine-2-carboxylic acid]
relative gene expression of RUNX2, OCN and OPN (differentiating MSC): increased
RE of RUNX2 [1]: 1.43
RE of osteocalcin [1]: 1.93
RE of osteopontin [1]: 1.35
